# Legend:
# Type in all cases: cell-based
# [1] = tested on: Escherichia coli susceptible (ATCC25922); assay: Broth microdilution method MIC; conditions: E. coli ATCC25922, read-out: MIC according to broth microdilution method
# [2] = tested on: Escherichia coli resistant (ATCC700891); assay: Broth microdilution method MIC; conditions: E. coli ATCC700891, read-out: MIC according to broth microdilution method
# [3] = tested on: Escherichia coli susceptible (ATCC25922); assay: Fast (1 hour) high dose detection of resistant bacteria by fluorescence microscopy
# Method: (§1) To rapidly detect high resistant bacteria to a particular antimicrobial agent, bacteria were grown during a short period of time (1 hour) in the presence of high dose of that antimicrobial agent. Two strains of Escherichia coli, one susceptible (ATCC25922) and the other resistant (ATCC700891) to ampicillin were grown until an exponential phase in culture media. Bacteria cultures were diluted in culture media (Mueller Hinton cation adjusted broth) and were incubated at a final concentration of 2×10^4 CFU/mL during 1 hour at 37° C. in the presence of ampicillin at a final concentration of 128 mg/L, 64 mg/L, and 32 mg/L in a final volume of 10 μL. Three replicates were performed for each antibiotic concentration.
# (§2) Samples were visualized at time 0 that represents bacteria before any incubation and after 1 hour incubation. 5 μL of each sample were transferred to a 384-well plate with flat polystyrene film bottom and incubated with fluorescence dyes (SYBR Green and Propidium Iodide) during 10 minutes at room temperature in the dark. The 384-well plate was centrifuged during 1 minute at 3000 g in a swinging-bucket movement and observed in an inverted fluorescence microscope. For each sample a composite image covering the bottom of each well was constructed. Images were analyzed with a custom software to count bacteria, detect filamentous bacteria, counts red bacteria, and record the brightness of bacteria. These images are illustrated in FIG. 26A.
# [4] = tested on: Escherichia coli resistant (ATCC700891); assay: as above
# Method: as §1, §2
# [5] = 128 mg/L, 64 mg/L and 32 mg/L, 1 hour at 37° C.
smiles,measurement,setting,value
"CC1(C)S[C@@H]2[C@H](NC(=O)[C@H](N)c3ccccc3)C(=O)N2[C@H]1C(=O)O [ampicillin, Ampicillin]",MIC,[1],4 µg/mL
same,MIC,[2],≥ 128 µg/mL
same,bacterial growth after 1 hour incubation,[3]; [5],does not grow
same,"red (Propidium Iodide, dead) bacteria after 1 hour incubation",[3]; at 128 mg/L,presence of red bacteria
same,bacterial morphology after 1 hour incubation,"[3]; in the three concentrations tested (128, 64, 32 mg/L)",filamentous form
same,bacterial growth after 1 hour incubation,[4]; [5],showed growth
same,filamentous or red bacteria after 1 hour incubation,"[4]; all three tested concentrations (128, 64, 32 mg/L)",without presence of filamentous bacteria or red bacteria

# — patent US20250075248A1, “SYSTEMS, METHODS, AND DEVICES FOR ANTIMICROBIAL SUSCEPTIBILITY TESTING” (Deepull Diagnostics S.L., priority 2022, published 2025)
